Measurements: patent publication US20130165520A1, “Hybrid Molecule Having Mixed Retinoic Acid Receptor Agonism and Histone Deacetylase Inhibitory Properties” (priority 2010, published 2013)

What was measured:
Assay type in all cases: cell-based
RARα = molecular target: T1, RARα (Homo sapiens, UniProt P10276); test: BRET assay of agonist-dependent coactivator recruitment in transfected HEK293 cells; settings: 1 μM, 2 hours treatment
T1 sequence (P10276 1-462): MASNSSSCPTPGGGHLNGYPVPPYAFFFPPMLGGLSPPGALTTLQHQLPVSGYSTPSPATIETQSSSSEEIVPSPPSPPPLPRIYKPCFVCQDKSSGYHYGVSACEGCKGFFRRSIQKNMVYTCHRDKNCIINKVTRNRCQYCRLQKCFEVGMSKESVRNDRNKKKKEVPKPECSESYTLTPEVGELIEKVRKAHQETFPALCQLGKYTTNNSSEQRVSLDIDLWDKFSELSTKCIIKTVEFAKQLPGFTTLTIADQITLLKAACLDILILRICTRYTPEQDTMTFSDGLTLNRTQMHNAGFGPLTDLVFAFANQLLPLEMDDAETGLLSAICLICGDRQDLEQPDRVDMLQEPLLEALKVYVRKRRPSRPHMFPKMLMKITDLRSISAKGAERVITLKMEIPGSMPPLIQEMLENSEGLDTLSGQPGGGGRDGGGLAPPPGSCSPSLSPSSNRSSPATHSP
Description: Hybrid 3 was prepared by treatment of the methyl ester of TTNN with excess hydroxylamine under alkaline conditions. The effects of hybrid 3 on RAR were initially assessed using a bioluminescence resonance energy transfer (BRET) assay. The BRET assay monitors agonist-dependent recruitment of coactivators to RARs in transfected HEK293 cells, chosen because of their high degree of transfectability. Energy transfer between luciferase (fused to RARα) and eGFP (fused to the LXXLL coactivator motif) occurs only when these moieties are juxtaposed by the RAR-LXXLL interaction, and can be detected by the emission of green fluorescence.
Cell transfection and BRET assays: HEK293 cells were grown to confluence, trypsinized and plated at a density of 500 k cells per well (12-well plates) in DMEM supplemented with 10% charcoal treated FBS (FBS-T). The following day, cells were transfected with PEI using 0.1 μg of RAR-RLuc vector and 1 μg of LXXLL-eGFP vector. 48 hours post-transfection, cells were treated with retinoids for 2 hours before taking BRET measurements as described previously.

[1] = system: RAR target genes in MCF-7 cell line; test: RT-qPCR analysis of RAR target genes
Excerpt: (§1) The agonist activity of 3 through its effects on RAR target genes was subsequently analyzed (FIG. 3).

[2] = system: RAR target genes in MDA-MB-231 cell line; test: RT-qPCR analysis of RAR and HDACi target genes; settings: MDA-MB-231 cell line
Excerpt: as §1

MDA-MB-231 = test: Cell growth measurement; settings: 10 days of treatment
Description: (§2) Finally, the effects of 3 on the growth of several breast cancer cell lines [MCF-7 (ER-positive, HER2-negative, RA-sensitive); SkBr3 (ER-negative, HER2-amplified, RA-sensitive); and the normally RA-insensitive MDA-MB-231 (ER-negative, HER2-negative, RA-insensitive)] was assessed.
(§3) Cell Growth Measurement: Cells were plated at 40 k cells per well (6-well plate) in DMEM 5% FBS-T for all cell lines except for I-IMEC cells which were plated in supplemented MEBM from Clonetics. Cells were treated every 48 hours and media was refreshed every 96 hours. After 10 days of treatment cells were harvested in 0.1N NaOH and growth was quantified by analyzing protein content of lysates with a Lowry assay.

MCF-7 = test: Cell growth measurement; settings: 10 days of treatment
Description: as §2, §3

SkBr3 = test: Cell growth measurement; settings: 10 days of treatment
Description: as §2, §3

[3] = system: normal human mammary epithelial cells (HMEC); test: Cell growth measurement

Row | RARα agonism (BRET signal) (RARα) | SMILES | induction of RAR target genes (RT-qPCR) [1] | induction of RAR target genes (RT-qPCR) [2] | effect on cell growth (MDA-MB-231) | effect on cell growth (MCF-7) | effect on cell growth (SkBr3) | effect on growth of normal cells [3]
1 | agonists of RARα | CC1=C(/C=C/C(C)=C/C=C/C(C)=C/C(=O)O)C(C)(C)CCC1 [ATRA, all-trans-retinoic acid] | no induction of either RARB1 or RARB2 | only induce RARB2 | little to no effect |  |  | 
2 | no increase in BRET signal | CN1c2ccccc2N=C(c2ccc(C(=O)O)cc2)c2cc3c(cc21)C(C)(C)CCC3(C)C [HX600] |  |  |  |  |  | 
3 |  | O=C(CCCCCCC(=O)Nc1ccccc1)NO [SAHA, reference compound] |  |  | modest decrease in cell growth | shallow activity | shallow activity | strong inhibition

Row | SMILES | RARα agonism (BRET signal) (RARα) | induction of RAR target genes (RT-qPCR) [1] | induction of RAR target genes (RT-qPCR) [2] | effect on cell growth (MDA-MB-231) | effect on cell growth (MCF-7) | effect on cell growth (SkBr3) | effect on growth of normal cells [3]
4 | CC1(C)CCC(C)(C)c2cc(-c3ccc4cc(C(=O)O)ccc4c3)ccc21 [TTNN, 6-(5,6,7,8-tetrahydro-5,5,8,8-tetramethyl-2-naphthalenyl)-2-naphthalene carboxylic acid, reference compound] | agonists of RARα | no induction of either RARB1 or RARB2 | only induce RARB2 | little to no effect | inactive | inactive | 
